The text below walks through data of patent US8937050B2, “Methods and compositions for treatment of autism” (The Johns Hopkins University, priority 2011, dated 2015).

For one data set, the system named is K562 cells. The data set is described as follows: Flow cytometric analysis of mitochondrial mass (Mitotracker). It counts as cell-based, human. The conditions noted are these: K562 cells, 1.2 mM SB or 100 μM HU; FIG. 1C. How it is done:
Fibroblasts (70-95% confluent) were treated with 5 mM 4PBA (1 mM for JNK inhibition studies), 600 μM HU, 200 nM TSA, or 5 μM SFN unless otherwise specified.
K562 cells were incubated with 50 nM Mitotracker Green FM, 300 nM Mitotracker Deep Red 633 (Invitrogen), or PBS as a negative control for 15 min at 37° C. or stained with anti-Pex14 using Caltag Fix and Perm reagents (Invitrogen) following the manufacturer's instructions. Stained cells were suspended in 0.5 mL of 1% paraformaldehyde/PBS and subjected to flow cytometric analysis (FACScan machine, Becton Dickinson, Franklin Lakes, N.J.).
K562 cells were treated with SB and HU for four to ten days. […] (n≧3 unless otherwise noted).
To determine whether the induction of mitochondrial biogenesis by SB or HU treatment was necessary for the induction of HbF-producing cell production, K562 cells were treated with SB or HU in the presence or absence of AA. […] After two to four days of drug treatment with or without AA, mitochondrial mass was measured using Mitotracker, a mitochondrial stain. Fold change (drug treated/control) is shown. […] After four days of drug treatment with or without AA, cells were stained with DAF. The relative number of cells producing HbF (DAF stained cells) were plotted. […] After eight to ten days of drug treatment, peroxisome proliferation was measured using an antibody against the peroxisomal membrane protein, PEX14 and a FITC-labeled secondary antibody. Fold change (drug treated/control) is shown. In FIGS. 1C, 1D, and 1E, the * represents a statistically significant increase in a measurement between drug treated and control samples or a statistically significant decrease in a measurement between drug treated and drug treated samples in the presence of AA (p≦0.05) (Bars=SEM). This finding indicates dependence of the beneficial effect (i.e., elevated HbF levels) on induced mitochondrial biogenesis. Thus, the therapeutic effects observed in SCD may involve the pharmacological induction of mitochondrial biogenesis by SB or HU. […]

The subject of the next data set is FL-SMN mRNA. The data set is described as follows: RT-PCR of FL-SMN and total SMN mRNA in spinal muscular atrophy fibroblasts. Format: cell-based, human. How it is done:
Following the manufacturer's protocols, DNase I-treated cDNA was synthesized using Superscript III or Thermoscript reverse transcriptase (Invitrogen). PCR reactions were performed in duplicate on the Roche Lightcycler 3.5 (Basel, Switzerland) or the Bio-Rad iCycler (Hercules, Calif.) using Quantitech SYBR green PCR mix (Qiagen, Valencia, Calif.). GeNorm software calculated a normalization factor for each sample using the relative amounts of at least two of the following reference genes, β2-microglobulin, […], actin, and/or eukaryotic elongation factor 1A (Vandesompele et al., 2002). Primers for the various experiments described herein are listed below.
Type I and type III spinal muscular atrophy (SMA I or SMA III) fibroblasts were treated with SFN for the indicated times. The relative fold increase in the ratio of FL-SMN/total SMN transcripts compared with the untreated cell line (normalized to 1) is plotted. Cell lines from left to right are GM09677, GM00232 and 2906. N≧2 independent experiments.
Spinal muscular atrophy fibroblasts were treated with 1.5 mM SFN alone for 51 hr. (SMA I, GM09677) or treated with 0.5 mM SFN for 8 hr. (SMA III, 2906) with or without […] SP600125 (JNK inhibitor), 2.5 mM 3-methyladenine (autophagy inhibitor, APG), […] antimycin A (mitochondrial inhibitor, MITO) or […] sirtinol (SIRT1 inhibitor). The fold increases in FL-SMN expression compared with either GAPDH or total SMN expression and the fold increase in total SMN expression compared with GAPDH expression after SFN treatment is plotted. Untreated values were normalized to 1 and are indicated by the horizontal line. (n=1 per cell line, performed in duplicate)
To determine which stress pathways are necessary for the increase in FL-SMN production, spinal muscular atrophy fibroblasts were co-treated with SFN and either SP600125, an inhibitor of the JNK pathway (Bennett et al., 2001), 3-methyladenine, an inhibitor of the autophagy pathway (Seglen et al., 1982), antimycin A, a mitochondrial inhibitor (Ranganathan et al., 2009), or sirtinol, an inhibitor of SIRT1 activity (Grozinger et al., 2001). […] SIRT1, an NAD+-dependent deacetylase, is known to regulate cellular stress responses, cellular metabolism and cellular survival (Salminen et al., 2009). Specifically, SIRT1 inhibition reduces the induction of HSR genes (Westerheide et al., 2009); SIRT1 activity enhances SOD2 expression (Anastasiou et al., 2006); SIRT1 negatively regulates the mammalian target of rapamycin triggering autophagy (Haigis et al., 2010); and SIRT1 activates mitochondrial biogenesis via the stress-responsive transcription factor PGC1a (Yu et al., 2009). The yeast ortholog Sir2 is necessary for the induction of mitochondrial biogenesis by 4PBA or HU in Saccharomyces cerevisiae (Cha 2010). […] However, SIRT1 can be activated by various post-translational changes. Therefore, the potential involvement of SIRT1 in the therapeutic effects of these drugs by inhibition studies was evaluated.

For data set [1] the following is noted: human research studies; cited from earlier work.

For the molecule `NC(=O)NO` [HU, hydroxyurea], the mitochondrial mass entry with K562 cells is “significantly increased”.
Consider `C[S@@+]([O-])CCCCN=C=S` [SFN, 1-isothiocyanato-4R-(methylsulfinyl)butane], for which, in the data set with FL-SMN mRNA (FIG. 8B), the “relative expression of FL-SMN transcripts normalized to GAPDH or total SMN transcript levels” value is “increased” and the “total SMN transcript levels normalized to GAPDH transcript levels” value was “remained unchanged”. The “FL-SMN mRNA expression compared with total SMN transcription” value with FL-SMN mRNA (SMA type I lines GM09677, GM00232 and SMA type III line 96-2906, FIG. 8A) is recorded as “significantly increased”. Moreover, in data set [1], the adverse effects result is “not shown any significant adverse effects”.
